Positions of bridges follow the written chain, without caps; N, C: chain ends. Residues, ends and D or L forms follow the SMILES beside them.
Experiments:
[1] = system: thermal nociception in naïve rats; settings: 1.6 μg i.t.
[2] = target: hERG channel (Homo sapiens, UniProt Q12809); test: in vitro
Chain of hERG channel (Q12809 whole entry): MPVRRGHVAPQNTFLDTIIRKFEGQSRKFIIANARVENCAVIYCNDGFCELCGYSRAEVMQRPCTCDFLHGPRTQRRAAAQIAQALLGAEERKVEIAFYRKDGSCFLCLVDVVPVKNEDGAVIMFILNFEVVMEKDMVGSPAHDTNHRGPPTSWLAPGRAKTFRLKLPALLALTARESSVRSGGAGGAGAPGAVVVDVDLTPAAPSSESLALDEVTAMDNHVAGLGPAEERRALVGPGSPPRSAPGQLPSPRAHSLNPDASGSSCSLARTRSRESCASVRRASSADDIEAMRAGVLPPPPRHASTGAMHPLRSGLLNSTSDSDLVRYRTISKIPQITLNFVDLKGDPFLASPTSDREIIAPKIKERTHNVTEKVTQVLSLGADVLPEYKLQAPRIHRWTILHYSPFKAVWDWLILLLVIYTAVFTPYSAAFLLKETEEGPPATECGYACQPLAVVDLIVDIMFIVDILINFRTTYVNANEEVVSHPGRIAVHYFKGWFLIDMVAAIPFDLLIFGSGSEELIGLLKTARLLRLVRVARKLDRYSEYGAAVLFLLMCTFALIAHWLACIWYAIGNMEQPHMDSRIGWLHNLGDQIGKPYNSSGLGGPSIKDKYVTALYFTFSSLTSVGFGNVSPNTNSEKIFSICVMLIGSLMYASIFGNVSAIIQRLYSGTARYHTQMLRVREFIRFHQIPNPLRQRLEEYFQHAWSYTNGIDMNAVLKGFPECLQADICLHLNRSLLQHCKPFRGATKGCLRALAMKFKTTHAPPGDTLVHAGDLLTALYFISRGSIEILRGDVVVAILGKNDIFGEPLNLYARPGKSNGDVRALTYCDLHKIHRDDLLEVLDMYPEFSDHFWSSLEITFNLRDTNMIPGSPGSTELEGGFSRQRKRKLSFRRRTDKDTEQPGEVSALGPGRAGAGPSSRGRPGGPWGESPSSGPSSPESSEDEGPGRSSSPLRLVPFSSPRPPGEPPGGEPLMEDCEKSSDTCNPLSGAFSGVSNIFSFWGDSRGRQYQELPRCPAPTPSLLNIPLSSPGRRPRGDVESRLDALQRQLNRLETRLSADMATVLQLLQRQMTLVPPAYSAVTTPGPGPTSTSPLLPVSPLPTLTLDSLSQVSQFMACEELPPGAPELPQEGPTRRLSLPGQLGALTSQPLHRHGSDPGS

Row | Compound | motor activity [1] | IC50 [2] [nM]
1 | CSCC[C@@H]1NC(=O)[C@H](Cc2c[nH]c3ccccc23)NC(=O)[C@H](CCCCN)NC(=O)[C@H](CCC(N)=O)NC(=O)[C@@H](NC(=O)[C@@H](N)CCC(N)=O)CSSC[C@@H]2NC(=O)[C@@H]3CSSC[C@@H](C(=O)N[C@@H](CCCNC(=N)N)C(=O)N[C@@H](CCCCN)C(=O)N[C@@H](CCC(=O)O)C(=O)N[C@@H](CC(C)C)C(=O)N[C@@H](CC(C)C)C(N)=O)NC(=O)[C@H](Cc4c[nH]c5ccccc45)NC(=O)[C@H](CC(C)C)NC(=O)[C@H](CCCNC(=N)N)NC(=O)[C@H](CSSC[C@H](NC(=O)[C@H]([C@@H](C)O)NC(=O)[C@H](CCC(N)=O)NC1=O)C(=O)N[C@@H](CC(=O)O)C(=O)N[C@@H](CCCCN)C(=O)N[C@@H](CC(=O)O)C(=O)N[C@@H](CCCNC(=N)N)C(=O)N[C@@H](CCCCN)C(=O)N3)NC(=O)[C@H](CCCNC(=N)N)NC(=O)[C@H](Cc1ccccc1)NC(=O)CNC(=O)[C@H](CCC(=O)O)NC2=O [PTx2-3127] (H-QCQKWMQTCDKDRKCCEGFRCRLWCRKELL-NH2; disulfide 2-16, 9-21, 15-25) | did not lame or significantly alter motor activity | –
2 | CSCC[C@@H]1NC(=O)[C@H](Cc2c[nH]c3ccccc23)NC(=O)[C@H](CCCCN)NC(=O)[C@H](CCC(N)=O)NC(=O)[C@@H](NC(=O)[C@@H](N)Cc2c[nH]cn2)CSSC[C@@H]2NC(=O)[C@@H]3CSSC[C@@H](C(=O)N[C@@H](CCCNC(=N)N)C(=O)N[C@@H](CCCCN)C(=O)N[C@@H](CCC(=O)O)C(=O)N[C@@H](CC(C)C)C(=O)N[C@@H](CC(C)C)C(N)=O)NC(=O)[C@H](Cc4c[nH]c5ccccc45)NC(=O)[C@H](CC(C)C)NC(=O)[C@H](CCCNC(=N)N)NC(=O)[C@H](CSSC[C@H](NC(=O)[C@H]([C@@H](C)O)NC(=O)[C@H](CCC(N)=O)NC1=O)C(=O)N[C@@H](CC(=O)O)C(=O)N[C@@H](CCCCN)C(=O)N[C@@H](CC(=O)O)C(=O)N[C@@H](CCCNC(=N)N)C(=O)N[C@@H](CCCCN)C(=O)N3)NC(=O)[C@H](CCCNC(=N)N)NC(=O)[C@H](Cc1ccccc1)NC(=O)CNC(=O)[C@H](CCC(=O)O)NC2=O [PTx2-3258] | – | 1000

From patent publication US20260001922A1, “PEPTIDES TARGETING SODIUM CHANNELS TO TREAT PAIN” (priority 2022, published 2026)
